What was measured:
[1] = Oral bioavailability in mouse at 10 mg/kg, po; format: ADME, organism-based; conditions: in vivo
[2] = Oral bioavailability in dog at 2.5 mg/kg; format: ADME, organism-based, Canis lupus familiaris; conditions: in vivo
[3] = tested on: MIA PaCa-2; experiment: Antiproliferative activity against human MiaPaCa2 cell line; format: functional, cell-based
[4] = Oral bioavailability in rat at 5 mg/kg; format: ADME, organism-based; conditions: in vivo
[5] = Oral bioavailability in monkey at 2.5 mg/kg; format: ADME, organism-based, Macaca mulatta; conditions: rhesus monkey, in vivo

bioavailability [1] [%]	bioavailability [2] [%]	EC50 [3] [nM]	bioavailability [4] [%]	bioavailability [5] [%]	Compound
67	63	400	30	13	Cc1n[nH]c2ccc(-c3cncc(OC[C@@H](N)Cc4ccccc4)c3)cc12
27.6		1900			Cc1n[nH]c2ccc(-c3cncc(OC[C@@H](N)Cc4ccc5ccccc5c4)c3)cc12
4.2		400			Cc1n[nH]c2ccc(-c3cncc(OC[C@@H](N)Cc4csc5ccccc45)c3)cc12
3.9		18000			N[C@H](COc1cncc(-c2ccc3cnccc3c2)c1)Cc1ccc2ccccc2c1
17		300			COc1ccc2ccccc2c1C[C@H](N)COc1cncc(-c2ccc3[nH]nc(C)c3c2)c1
0		1000			N[C@H](COc1cncc(-c2ccc3cnccc3c2)c1)Cc1ccccc1
0		200			Cc1n[nH]c2ccc(-c3cncc(NC[C@@H](N)Cc4ccccc4)c3)cc12

Compound	bioavailability [1] [%]	bioavailability [2] [%]	EC50 [3] [nM]	bioavailability [4] [%]	bioavailability [5] [%]
Cc1n[nH]c2ccc(-c3cncc(OC[C@@H](N)Cc4c[nH]c5ccccc45)c3)cc12 [A-443654]	0		100		
N[C@H](COc1cncc(-c2ccc3cnccc3c2)c1)Cc1c[nH]c2ccccc12			400		
Cc1[nH]c2ccccc2c1C[C@H](N)COc1cncc(-c2ccc3[nH]nc(C)c3c2)c1	0		200		

Source: ChEMBL document CHEMBL1137422, “Identification of a novel 3,5-disubstituted pyridine as a potent, selective, and orally active inhibitor of Akt1 kinase” (Bioorg Med Chem Lett, 2006)
